In patent US5242908A, “Use of benzylphosphonic acid derivatives for the treatment of diseases caused by viruses” (priority 1990, dated 1993):
Like-named read-outs stand apart in the source and are kept apart here.

Assays:
[1] = test system: Herpes simplex 1; type: in vivo, NMRI mice; conditions: for Survivors: groups of 5 mice
Description: The treatment was performed twice daily, starting after the infection. The substances were administered to the experimental animals 5 or 9 times (see Table 1).
The chemotherapeutic action can be seen from Table 1.

[2] = in vitro; conditions: hela and vero cells
[3] = po 9 × 0 mg/kg (so in the source)

COP(=O)(Cc1ccccc1C)OC [A, dimethyl 2-methylbenzylphosphonate] gave an Average survival time ([1]; po 5 × 2.5 mg/kg) of 10.5 days, a Survivors ([1]; po 5 × 2.5 mg/kg) of 3 and an Average survival time ([1]; po 5 × 25 mg/kg) of 9.0 days. It also gave a Survivors ([1]; po 5 × 25 mg/kg) of 3, an Average survival time ([1]; sc 5 × 2.5 mg/kg) of 12.0 days and a Survivors ([1]; sc 5 × 2.5 mg/kg) of 2. It also gave an Average survival time ([1]; sc 5 × 25 mg/kg) of 9.0 days, a Survivors ([1]; sc 5 × 25 mg/kg) of 4 and an Average survival time ([1]; sc 5 × 250 mg/kg) of 9.0 days. It also gave a Survivors ([1]; sc 5 × 250 mg/kg) of 4.
Work on CCOP(=O)(Cc1ccccc1Br)OCC [C, diethyl 2-bromobenzylphosphonate] yielded an Average survival time ([1]; po 5 × 2.5 mg/kg) of 6.7 days, a Survivors ([1]; po 5 × 2.5 mg/kg) of 2 and an Average survival time ([1]; po 5 × 25 mg/kg) of 8.5 days. For the same compound, the Survivors ([1]; po 5 × 25 mg/kg) was 3, the Average survival time ([1]; po 5 × 250 mg/kg) was 8.0 days and the Survivors ([1]; po 5 × 250 mg/kg) was 2.
CCOP(=O)(Cc1ccc(Br)cc1)OCC [D, diethyl 4-bromobenzylphosphonate] showed an Average survival time ([1]; po 5 × 0.25 mg/kg) of 8.7 days, a Survivors ([1]; po 5 × 0.25 mg/kg) of 2 and an Average survival time ([1]; po 5 × 2.5 mg/kg) of 7.0 days. The Survivors ([1]; po 5 × 2.5 mg/kg) was 2, the Average survival time ([1]; po 5 × 25 mg/kg) was 6.0 days and the Survivors ([1]; po 5 × 25 mg/kg) was 3. For the same compound, the Average survival time ([1]; po 9 × 3 mg/kg) was 8.0 days, the Survivors ([1]; po 9 × 3 mg/kg) was 4 and the Average survival time ([1]; po 9 × 10 mg/kg) was 8.3 days. The Survivors ([1]; po 9 × 10 mg/kg) was 2, the Average survival time ([1]; po 9 × 30 mg/kg) was 10.5 days and the Survivors ([1]; po 9 × 30 mg/kg) was 3. It also gave an Average survival time ([1]; sc 5 × 0.25 mg/kg) of 9.0 days, a Survivors ([1]; sc 5 × 0.25 mg/kg) of 1 and an Average survival time ([1]; sc 5 × 2.5 mg/kg) of 8.5 days. For the same compound, the Survivors ([1]; sc 5 × 2.5 mg/kg) was 3, the Average survival time ([1]; sc 5 × 25 mg/kg) was 8.0 days and the Survivors ([1]; sc 5 × 25 mg/kg) was 4.
In the case of CCOP(=O)(Cc1ccccc1C)OCC [E, diethyl 2-methylbenzylphosphonate], the Average survival time [1, 3] is reported as 7.0 days, the Survivors [1, 3] is reported as 2 and the Average survival time ([1]; po 9 × 3 mg/kg) is reported as 5.7 days. For the same compound, the Survivors ([1]; po 9 × 3 mg/kg) was 1, the Average survival time ([1]; po 9 × 30 mg/kg) was 7.5 days and the Survivors ([1]; po 9 × 30 mg/kg) was 3. It also gave an Average survival time ([1]; sc 9 × 3 mg/kg) of 6.3 days, a Survivors ([1]; sc 9 × 3 mg/kg) of 1 and an Average survival time ([1]; sc 9 × 10 mg/kg) of 6.5 days. The Survivors ([1]; sc 9 × 10 mg/kg) was 3, the Average survival time ([1]; sc 9 × 30 mg/kg) was 6.7 days and the Survivors ([1]; sc 9 × 30 mg/kg) was 2.
CCOP(=O)(Cc1cc(C)ccc1C)OCC [K, diethyl 2,5-dimethylbenzylphosphonate] gave an Average survival time ([1]; sc 5 × 2.5 mg/kg) of 7.4 days, a Survivors ([1]; sc 5 × 2.5 mg/kg) of 0 and an Average survival time ([1]; sc 5 × 25 mg/kg) of 8.6 days. The Survivors ([1]; sc 5 × 25 mg/kg) was 0, the Average survival time ([1]; sc 5 × 250 mg/kg) was 8.0 days and the Survivors ([1]; sc 5 × 250 mg/kg) was 3.
For Cc1ccccc1CP(=O)(OC(C)C)OC(C)C [L, diisopropyl 2-methylbenzylphosphonate], the Survivors ([1]; po 5 × 2.5 mg/kg) was 5, the Average survival time ([1]; po 5 × 25 mg/kg) was 8.7 days and the Survivors ([1]; po 5 × 25 mg/kg) was 2. The Average survival time ([1]; po 5 × 250 mg/kg) was 8.7 days, the Survivors ([1]; po 5 × 250 mg/kg) was 2 and the Average survival time ([1]; sc 5 × 2.5 mg/kg) was 8.3 days. For the same compound, the Survivors ([1]; sc 5 × 2.5 mg/kg) was 1, the Average survival time ([1]; sc 5 × 25 mg/kg) was 7.4 days and the Survivors ([1]; sc 5 × 25 mg/kg) was 0. For the same compound, the Average survival time ([1]; sc 5 × 250 mg/kg) was 6.5 days and the Survivors ([1]; sc 5 × 250 mg/kg) was 3.
Work on CCCCOP(=O)(Cc1ccccc1C)OCCCC [M, di-n-butyl 2-methylbenzylphosphonate] yielded an Average survival time ([1]; sc 5 × 2.5 mg/kg) of 7.0 days, a Survivors ([1]; sc 5 × 2.5 mg/kg) of 4 and an Average survival time ([1]; sc 5 × 25 mg/kg) of 7.5 days. The Survivors ([1]; sc 5 × 25 mg/kg) was 3, the Average survival time ([1]; sc 5 × 250 mg/kg) was 7.7 days and the Survivors ([1]; sc 5 × 250 mg/kg) was 1.
Cc1ccccc1CP(=O)(O)O [O, di-triethylammonium 2-methylbenzylphosphonate] showed an MNTC [2] of 133 µg/mL.
